Laboratory results from patent US6649565B1, “Selective herbicides on the basis of a substituted phenylsulfonylaminocarbonyltriazolinone and safeners” (Bayer Aktiengesellschaft, priority 1999, dated 2003).

Legend:
[1] = tested on: barley of the cultivar Coronar; test: Post-emergence test/greenhouse, damage to crop plant barley; format: in vivo; details: greenhouse, after approx. 18 days
Source text: (§1) The active compounds in question were used in the form of customary formulations. The sodium salt of the compound of the formula (I) was applied as 70 WG or 70 WP, mefenpyr-diethyl was applied as 100 EC and fenchlorazole-ethyl and cloquintocetmexyl were applied as a laboratory formulation of the active compound produced by ourselves. The active compounds and, if appropriate, the safeners were used to prepare an aqueous spray liquor comprising 0.1% of the additive Renex-36.
(§2) The active compound preparation is used to spray test plants which were grown in 10×10 cm pots (growth medium: soil or vermiculte), such that the particular amounts of active compound desired are applied per unit area. The concentration of the spray liquor is chosen such that the particular amounts of active compound desired are applied in […].
(§3) After approximately 18 days the degree of damage to the crop plants was rated in % damage in comparison with the development of the untreated control.
(§4) 0%=no damage (like untreated control)
(§5) 100%=total destruction/damage
(§6) Active compounds, application rates, test plants and results are shown in the tables below, the terms used in the tables having the following meaning:
barley=barley of the cultivar Coronar
(§7) a.i.=active ingredient=active compound/safener

[2] = tested on: wheat of the cultivar Orestis; test: Post-emergence test/greenhouse, damage to crop plant wheat; format: in vivo; details: greenhouse, after approx. 18 days
Source text: as §1, §2, §3, §4, §5, §6
wheat=wheat of the cultivar Orestis
as §7

CCCOc1nn(C(=O)[N-]S(=O)(=O)c2ccccc2C(=O)OC)c(=O)n1C.[Na+]
Damage barley ([1]; Table A5, 15 g of a.i./ha): 50% | Damage barley ([1]; Table A5, 30 g of a.i./ha): 70% | Damage barley ([1]; Table A5, 60 g of a.i./ha): 70% | Damage barley ([1]; Table A6, 8 g of a.i./ha): 50% | Damage barley ([1]; Table A6, 15 g of a.i./ha): 50% | Damage barley ([1]; Table A6, 30 g of a.i./ha): 60% | Damage barley ([1]; Table A6, 60 g of a.i./ha): 60% | Damage barley ([1]; Table A9, 15 g of a.i./ha): 50% | Damage barley ([1]; Table A9, 30 g of a.i./ha): 70% | Damage barley ([1]; Table A9, 60 g of a.i./ha): 70% | Damage wheat ([2]; Table A1, 90 g of a.i./ha): 20% | Damage wheat ([2]; Table A1, 180 g of a.i./ha): 30% | Damage wheat ([2]; Table A2, 60 g of a.i./ha): 20% | Damage wheat ([2]; Table A2, 125 g of a.i./ha): 30% | Damage wheat ([2]; Table A2, 250 g of a.i./ha): 50% | Damage wheat ([2]; Table A3, 30 g of a.i./ha): 5% | Damage wheat ([2]; Table A3, 60 g of a.i./ha): 10% | Damage wheat ([2]; Table A3, 125 g of a.i./ha): 50% | Damage wheat ([2]; Table A4, 60 g of a.i./ha): 30% | Damage wheat ([2]; Table A4, 125 g of a.i./ha): 40% | Damage wheat ([2]; Table A7, 60 g of a.i./ha): 20% | Damage wheat ([2]; Table A7, 125 g of a.i./ha): 30% | Damage wheat ([2]; Table A7, 250 g of a.i./ha): 50% | Damage wheat ([2]; Table A8, 30 g of a.i./ha): 5% | Damage wheat ([2]; Table A8, 60 g of a.i./ha): 10% | Damage wheat ([2]; Table A8, 125 g of a.i./ha): 50%
